Source: publication PMC13489962, “Small-molecule modulation of β-arrestins” (Nature, 2026)
“Also recorded” adds a separate entry of the source.

Tests used:
[1] = tested on: adult ventricular cardiomyocytes (AT1R); test: Adult ventricular cardiomyocyte contractility; format: cell-based, mouse; settings: 25 μM, 20 min; TRV027 10 μM; paced at 1 Hz
Procedure: All animal experiments were approved by the Institutional Animal Care and Use Committee (IACUC) at Duke University Medical Center and performed in accordance with relevant guidelines and regulations. Ventricular cardiomyocytes were freshly isolated from 12- to 16-week-old C57BL/6J wild-type mice using a standard Langendorff perfusion system[39],[74]. The heart was initially cannulated through the aorta and then perfused with an oxygenated buffer at 37 °C (120 mM NaCl, 14.8 mM KCl, 0.6 mM KH2PO4, 0.6 mM Na2HPO4, 1.2 mM MgSO4·7H20, 10 mM HEPES, 4.6 mM NaHCO3, 30 mM taurine, and 5.6 mM glucose, pH 7.3). After 2 min, the buffer was switched to a digestion solution containing 2.4 mg ml^−1 collagenase (Worthington). Following 8 min of digestion, ventricles were transferred to a stopping buffer that included 10% calf serum. Myocytes were then manually dissociated and gradually brought to a physiological Ca^2+ concentration (1.2 mM). Isolated cardiomyocyte was first pretreated with DMSO (0.1%), C5, C46 or C64 (25 µM) for 20 min followed by treatment with HBSS (basal), angiotensin II (positive control, 10 µM) or TRV027 (10 µM). Cells were plated in a chamber (Ionoptix) on a Nikon Eclipse TE300 inverted microscope (40× 0.9 NA objective, MRF00400, Nikon). Cardiomyocytes were paced at 1 Hz and 20 V (MyoPacer, Ionoptix), and sarcomere length was recorded by a MyoCam-S camera (Ionoptix). Ten consecutive contractions per cell (7–12 cells per condition) were averaged to quantify contractility and kinetic parameters (IonWizard 7.2). […] Sample size represents the number of hearts at each condition derived from an average of 7–12 cells per heart for each condition. Statistical comparisons between conditions were performed using one-way ANOVA followed by Sidak post hoc test.

βARR2 = target: T1, βARR2 (Rattus norvegicus, UniProt P29067); test: ITC binding to βARR2; settings: for stoichiometry N, βARR2 / Kd: ITC; for Kd: 25 °C, one-site model; for β-arrestin isoform preference: from ITC
T1 construct: βARR1 or βARR2 construct, with their C terminus truncated (at amino acid 393 or 394, respectively); GST (pGEX4T1) (N, cleaved yes); made in house; host or cells: E. coli BL21 (DE3) pLysS
T1 sequence (P29067 1-394): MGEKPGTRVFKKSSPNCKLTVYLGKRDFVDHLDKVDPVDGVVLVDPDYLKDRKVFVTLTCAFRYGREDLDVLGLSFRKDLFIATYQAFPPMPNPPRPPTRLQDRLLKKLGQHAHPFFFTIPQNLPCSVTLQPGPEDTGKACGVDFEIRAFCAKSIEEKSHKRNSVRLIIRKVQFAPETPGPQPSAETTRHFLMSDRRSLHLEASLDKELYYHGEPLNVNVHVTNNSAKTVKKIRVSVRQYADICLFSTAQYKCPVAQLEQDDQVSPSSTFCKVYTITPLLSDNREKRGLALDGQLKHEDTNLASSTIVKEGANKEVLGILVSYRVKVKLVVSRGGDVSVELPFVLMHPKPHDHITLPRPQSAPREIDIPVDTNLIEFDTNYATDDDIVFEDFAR
Procedure: The expression and purification of β-arrestins have been described previously[44],[62]–[64]. In brief, E. coli BL21 (DE3) pLysS cells (New England Biolabs: C2527I) carrying pGEX4T1-Rattus norvegicus βARR1 or βARR2 construct, with their C terminus truncated (at amino acid 393 or 394, respectively), were cultured in Terrific Broth (Teknova) medium at 37 °C. After OD600 reached 0.6–0.8, the cells were induced with 0.1 mM isopropyl-β-D-thiogalactopyranoside (IPTG) at 18 °C overnight. Bacteria were collected by centrifugation (4,000 rpm), and cell pellets were resuspended in lysis buffer (20 mM HEPES, pH 8, 150 mM NaCl, 10% glycerol, 1 mM EDTA, 0.2 mM dithiothreitol (DTT), 1 mM phenylmethylsulfonyl fluoride, and 1 mM benzamidine) at 4 °C for 1 h. Cell suspensions were sonicated, centrifuged (14,000 rpm, 30 min, 4 °C), and the supernatant was loaded onto pre-equilibrated glutathione–agarose resin (GoldBio). After 3 h of binding at 4 °C, the beads were washed, and thrombin was added for overnight cleavage. The proteins were further purified by anion exchange chromatography followed by size-exclusion chromatography using a Superdex 200 Increase 10/300 GL column on an ÄKTA FPLC system (GE Healthcare). Eluted fractions were analysed by SDS–PAGE, pooled, concentrated using 30 kDa MWCO Amicon Ultra-15 Centrifugal Filter devices, flash-frozen in liquid nitrogen, and stored in aliquots at −80 °C. The same rat βARR1 constructs with mutations (L129A, L129S, L129G, P131A, P133A, E134A, D135A, K138A, C140A, Y249A, C251A, E283A, K284A and R285A) were generated and purified in a similar manner. Recombinant Gα subunits (Gαs, Gαq and Gαi) were purified as GST fusion proteins using glutathione–agarose affinity chromatography as previously described. The heterotrimeric Gs protein complex, composed of Gαs, Gβ1 and Gγ2 subunits, was expressed in Sf9 cells using the baculovirus expression system and purified as previously described. M2R expression, purification and reconstitution into high-density lipoprotein (HDL) particles were performed as previously described. ERK2, SRC, p38α and JNK3 kinases were expressed and purified using previously established protocols[6],[16]. Protein concentrations for each protein were determined by ultraviolet absorption at 280 nm and extinction coefficients estimated using the ExPASy ProtParam tool[67].
ITC measurements were performed on a MicroCal iTC200 system at 25 °C. Prior to ITC experiments, all proteins (βARR1, βARR2 or βARR1 mutants) were extensively dialysed against 20 mM HEPES (pH 7.4), 100 mM NaCl, and 3 μM TCEP. Protein concentrations were determined by spectrophotometry at 280 nm, using extinction coefficients calculated from each protein sequence via the ProtParam program. The dialysis buffer was used to dilute DMSO stock solutions of β-arrestin small-molecule modulators to their final concentrations for measurements. For each ITC experiment, β-arrestin modulators (Cmpd-5 at 350 μM, Cmpd-46 at 450 μM, and Cmpd-64 at 450 μM) were loaded into the syringe and titrated into the calorimetric cell containing βARR1, βARR1 mutants or βARR2 (at about 30–40 μM, depending on the protein and experiment). Additional ITC experiments were also performed using purified GST-fused Gα subunits (Gαs, Gαq and Gαi; about 30 μM) and Gαiβγ heterotrimer (about 30 μM). Gα subunits were prepared in the same buffer (20 mM HEPES, pH 7.4, 100 mM NaCl, 3 μM TCEP), whereas the Gαiβγ heterotrimer was maintained in buffer supplemented with 0.05% DDM and 10 μM GDP, with matched DMSO carrier conditions. Modulators (300 μM) or corresponding DMSO controls were loaded and titrated as described above. The reference cell was filled with distilled water. In all experiments, the titration sequence typically consisted of an initial 0.4 μl injection, followed by 19 injections of 2 μl each, with a 180-s interval between injections to allow thermal power to return to baseline. […]

Row | SMILES | effect on TRV027-enhanced sarcomere shortening, contraction and relaxation velocity [1] | stoichiometry N, βARR2 (βARR2) | Kd (βARR2) [nM] | β-arrestin isoform preference (βARR2)
1 | C=C1C(=O)C2=CC1CCC(=O)C1(C)CCC(OCC)C(C)(C)C1CC2O (centres unmarked) [Cmpd-46, (Z)-3-ethoxy-6-hydroxy-4,4,13a-trimethyl-9-methylene-1,2,3,4,4a,5,6,9,10,11,12,13a-dodecahydro-7,10-(metheno)benzo[11]annulene-8,13-dione] | significantly inhibited | 0.94 | 753 ± 54 | slight βarr2 preference; also recorded: modest βARR2 preference
2 | C=C1C(=O)OC2CC3(C)OC3CCC(C)=CC(OC(C)=O)C12 (centres unmarked) [Cmpd-64, (Z)-4,10a-dimethyl-7-methylene-8-oxo-1a,2,3,6,6a,7,8,9a,10,10a decahydrooxireno[2’,3’:8,9]cyclodeca[1,2-b]furan-6-yl acetate] | significantly inhibited | 0.91 | 207 ± 54 | –
3 | C=C1C(=O)[C@]23[C@H](O)[C@H]1CC[C@H]2[C@@]12CO[C@]3(O)[C@@H](O)[C@@H]1C(C)(C)CC[C@@H]2O [Cmpd-5, (1S,4aR,5S,6S,6aR,9S,11aS,11bS,14R)-1,5,6,14-tetrahydroxy−4,4-dimethyl-8-methylenedecahydro-1H-6,11b-(epoxymethano)-6a,9-methanocyclohepta[a]naphthalen-7(8H)-one] | significantly inhibited | 0.84 | 563 ± 45 | bound both isoforms comparably; also recorded: bound each isoform similarly
